Data: patent US8691864B2, “Agents useful for reducing amyloid precursor protein and treating dementia and methods of use thereof” (priority 2000, dated 2014)

What was measured:
[1] = test system: APP-mRNA 5′UTR; assay: CAT reporter assay with βAPP-mRNA 5′UTR in transfected U373 MG cells; assay type: cell-based
Description: One day prior to transfection, U373 cells were plated onto 100 mm dishes at a density of 3×10^5 cells. On the day of transfection, the cells were given 5 ml of fresh media containing 10% FBS, 2 mM glutamine in DMEM. The cells were transfected using a calcium phosphate precipitation method, as per the manufacturer's protocol and described previously (Rogers et al., 1999). Briefly, for each plate, three μg of DNA (5′UTR APP-PSV2-CAT or PSV2-CAT vector) were placed in a final volume of […] of 250 mM CaCl2. The chloramphenicol acetyl transferase (CAT) gene was used as a reporter gene. The DNA solution was slowly pipetted into an aerated, equivalent volume of 2×HeBS, pH 7.05. The resulting precipitate was allowed to stand 10-20 min at RT before its addition to the cells. After 18 h, the medium was changed and the transfected cells were left for two days before drug treatment.
The cell lysates from transfected U373 cells treated with phenserine were analyzed for their CAT activity using a colorimetric enzyme immunoassay (Boehringer Mannheim, Indianapolis, Ind.). Briefly, 50 μg of protein (an amount previously found to lie within the linear range of the assay) were placed onto anti-CAT coated microtiter plate modules and allowed to bind for 1 h at 37° C. The plates were washed thoroughly after each step. Next, a digoxigenin-labeled anti-CAT antibody was added to the samples and incubated for 1 h at 37° C. A subsequent antibody, anti-digoxigenin conjugated to peroxidase, was placed in the wells for another hour under similar conditions. Finally peroxidase substrate, ABTS, was added to each well and the absorbance of each sample was measured at a wavelength of 405 nm.
The plasmid PSV2-APP-CatD was provided by Dr. Rogers (1999). […]
Quantitation of the fold stimulus of CAT gene activity conferred by the 5′ UTR βAPP-mRNA was measured. ELISA readings of CAT expression were measured at 405 nm. […] In other assays where the time of treatment was extended to 48 hours, only a 2-fold decrease in CAT reporter mRNA was detected with phenserine treatment.

[2] = in vivo toxicity, i.p. administration to rodents
Description: This persisted for an hour and is related to central cholinergic overdrive. […] Animals were incapacitated at 20 mg/kg (N=3 per dose group), and 2 were killed when moribund.

## CN1CC[C@@]2(C)c3cc(OC(=O)Nc4ccccc4)ccc3N(C)[C@@H]12 [(−)-phenserine]
[1]; control vector, all time points
  CAT activity in pSV2 CAT (parental vector) transfected cells: no inhibition
[1]; pSV2 (APP) CAT transfected U373, 50 μM, 1 hour
  decrease of CAT gene activity conferred by the 5′ UTR βAPP-mRNA: 4 fold
[1]; pSV2 (APP) CAT transfected U373, treatment extended to 48 hours
  decrease in CAT activity: 2 fold
[2]; 5 mg/kg
  clinical signs: a fine tremor is observed
[2]; 7.5 mg/kg
  clinical signs: Tremor together with symptoms of peripheral cholinergic overdrive
  duration of tremor and peripheral cholinergic symptoms: ~3 h
[2]; 20 mg/kg
  clinical signs: incapacitated
